This test deals with T1, Glucocorticoid receptor (Homo sapiens, UniProt P04150).
T1 sequence (P04150 whole entry): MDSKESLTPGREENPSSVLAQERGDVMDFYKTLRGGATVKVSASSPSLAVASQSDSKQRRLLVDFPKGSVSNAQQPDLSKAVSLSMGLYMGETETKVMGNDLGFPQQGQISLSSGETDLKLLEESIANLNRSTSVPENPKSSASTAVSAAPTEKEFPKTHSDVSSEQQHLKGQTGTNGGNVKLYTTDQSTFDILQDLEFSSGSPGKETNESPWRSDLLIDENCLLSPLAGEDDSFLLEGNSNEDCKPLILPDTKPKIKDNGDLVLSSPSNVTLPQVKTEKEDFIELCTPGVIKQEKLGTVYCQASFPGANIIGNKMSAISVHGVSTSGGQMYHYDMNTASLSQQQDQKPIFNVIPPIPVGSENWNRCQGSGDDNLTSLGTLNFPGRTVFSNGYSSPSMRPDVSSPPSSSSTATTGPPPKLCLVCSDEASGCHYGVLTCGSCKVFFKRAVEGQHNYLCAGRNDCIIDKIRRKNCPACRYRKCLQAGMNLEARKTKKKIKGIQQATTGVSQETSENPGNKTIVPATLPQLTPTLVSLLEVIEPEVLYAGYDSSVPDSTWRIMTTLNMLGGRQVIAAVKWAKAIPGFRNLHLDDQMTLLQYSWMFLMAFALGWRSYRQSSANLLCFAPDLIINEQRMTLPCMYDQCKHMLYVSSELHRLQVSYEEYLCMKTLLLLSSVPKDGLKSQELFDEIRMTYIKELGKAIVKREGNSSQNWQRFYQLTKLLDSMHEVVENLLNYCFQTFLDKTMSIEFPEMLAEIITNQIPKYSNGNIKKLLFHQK
The test can be described thus: Binding affinity to glucocorticoid receptor by Fluorescence polarization. (In general: In fluorescence polarisation assays a small probe gives low polarisation when free and higher when bound to something large.)

Molecules are shown by their SMILES.

The values that follow come from ChEMBL document CHEMBL1149439, “A concise asymmetric route for the synthesis of a novel class of glucocorticoid mimetics containing a trifluoromethyl-substituted alcohol” (Bioorg Med Chem Lett, 2006).

What is called IC50 is the point on the concentration scale where inhibition reaches its midpoint.

Consider `COc1ccc(F)cc1C(C)(C)C[C@](O)(Cc1ccc(Cl)cc1)C(F)(F)F`, for which the IC50 was 2 µM. This counts as single-digit micromolar.

Regarding `COc1ccc(F)cc1C(C)(C)C[C@@](O)(Cc1ccc(Cl)cc1)C(F)(F)F`, the IC50 is 0.099 µM.
